Laboratory results from ChEMBL document CHEMBL1201861, “Genomics of Drug Sensitity in Cancer screening data, Wellcome Trust Sanger Institute”.

How the values were obtained:
Assay in all cases: cells
[1] = system: HCC 2998; assay type: functional, cell-based, Homo sapiens; conditions: Homo sapiens, HCC 2998;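 further: growth inhibition of human HCC2998 cells, measured with a cell viability read-out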
Description: SANGER: Inhibition of human HCC2998 cell growth in a cell viability assay.

[2] = system: U2OS; assay type: functional, cell-based, Homo sapiens, U-2-OS; conditions: Homo sapiens, U2OS;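 further: growth inhibition of human U-2-OS cells, determined with a cell viability assay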
Description: SANGER: Inhibition of human U-2-OS cell growth in a cell viability assay.

[3] = system: EM-2; assay type: functional, cell-based; conditions: Homo sapiens;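 further: growth inhibition of EM-2 cells, read out with a cell viability assay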
Description: SANGER: Inhibition of human EM-2 cell growth in a cell viability assay.

[4] = system: no-10; assay type: functional, cell-based, Homo sapiens; conditions: Homo sapiens;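 further: growth inhibition of no-10 cells, read out with a cell viability assay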
Description: SANGER: Inhibition of human no-10 cell growth in a cell viability assay.

[5] = system: NH-12; assay type: functional, cell-based, Homo sapiens; conditions: Homo sapiens, NH-12;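 further: growth inhibition of NH-12 cells, read out with a cell viability assay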
Description: SANGER: Inhibition of human NH-12 cell growth in a cell viability assay.

[6] = system: ES6; assay type: functional, cell-based, Homo sapiens; conditions: Homo sapiens, ES6;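 further: growth inhibition of human ES6 cells, read out with a cell viability assay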
Description: SANGER: Inhibition of human ES6 cell growth in a cell viability assay.

[7] = system: DB; assay type: functional, cell-based; conditions: Homo sapiens
Description: SANGER: Inhibition of human DB cell growth in a cell viability assay.

[8] = system: MIA PaCa-2; assay type: functional, cell-based, Homo sapiens; conditions: Homo sapiens, MIA PaCa-2;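 further: growth inhibition of MIA PaCa-2 cells, read out with a cell viability assay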
Description: SANGER: Inhibition of human MIA-PaCa-2 cell growth in a cell viability assay.

[9] = system: SW780; assay type: functional, cell-based, Homo sapiens; conditions: Homo sapiens, SW780;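 further: growth inhibition of the cells, read out with a cell viability assay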
Description: SANGER: Inhibition of human SW780 cell growth in a cell viability assay.

[10] = system: MKN-7; assay type: functional, cell-based, Homo sapiens; conditions: Homo sapiens, MKN-7;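 further: growth inhibition of MKN-7 cells, read out with a cell viability assay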
Description: SANGER: Inhibition of human MKN7 cell growth in a cell viability assay.

[11] = system: A704; assay type: functional, cell-based, Homo sapiens; conditions: Homo sapiens, A704;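 further: growth inhibition of human A704 cells, read out with a cell viability assay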
Description: SANGER: Inhibition of human A704 cell growth in a cell viability assay.

[12] = system: RS4-11; assay type: functional, cell-based; conditions: Homo sapiens;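 further: growth inhibition of RS4-11 cells, read out by a cell viability assay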
Description: SANGER: Inhibition of human RS4-11 cell growth in a cell viability assay.

[13] = system: EW-16; assay type: functional, cell-based, Homo sapiens; conditions: Homo sapiens, EW-16;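 further: growth inhibition of human EW-16 cells, read out as cell viability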
Description: SANGER: Inhibition of human EW-16 cell growth in a cell viability assay.

[14] = system: NCI-H2052; assay type: functional, cell-based, Homo sapiens; conditions: Homo sapiens, NCI-H2052;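 further: growth inhibition of NCI-H2052 cells, read out with a cell viability assay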
Description: SANGER: Inhibition of human NCI-H2052 cell growth in a cell viability assay.

[15] = system: BXPC-3; assay type: functional, cell-based, Homo sapiens; conditions: Homo sapiens, BXPC-3;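 further: growth inhibition of human BxPC-3 cells, read out by a cell viability assay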
Description: SANGER: Inhibition of human BxPC-3 cell growth in a cell viability assay.

[16] = system: SN12C; assay type: functional, cell-based, Homo sapiens; conditions: Homo sapiens, SN12C;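 further: growth inhibition of human SN12C cells, measured by a cell viability assay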
Description: SANGER: Inhibition of human SN12C cell growth in a cell viability assay.

[17] = system: KY821; assay type: functional, cell-based; conditions: Homo sapiens;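 further: growth inhibition of human KY821 cells, read out by a cell viability assay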
Description: SANGER: Inhibition of human KY821 cell growth in a cell viability assay.

[18] = system: A2058; assay type: functional, cell-based; conditions: Homo sapiens;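 further: reduction of A2058 cell growth, read out with a viability assay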
Description: SANGER: Inhibition of human A2058 cell growth in a cell viability assay.

[19] = system: 647-V; assay type: functional, cell-based, Homo sapiens; conditions: Homo sapiens, 647-V;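 further: growth inhibition of 647-V cells, read out with a cell viability assay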
Description: SANGER: Inhibition of human 647-V cell growth in a cell viability assay.

[20] = system: NB6; assay type: functional, cell-based, Homo sapiens; conditions: Homo sapiens, NB6;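 further: growth inhibition of NB6 cells, read out by a cell viability assay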
Description: SANGER: Inhibition of human NB6 cell growth in a cell viability assay.

[21] = system: KINGS-1; assay type: functional, cell-based, Homo sapiens; conditions: Homo sapiens, KINGS-1;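 further: cell viability assay measuring suppression of KINGS-1 cell growth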
Description: SANGER: Inhibition of human KINGS-1 cell growth in a cell viability assay.

[22] = system: TE-6; assay type: functional, cell-based, Homo sapiens; conditions: Homo sapiens, TE-6;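 further: growth inhibition of TE-6 cells, read out with a cell viability assay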
Description: SANGER: Inhibition of human TE-6 cell growth in a cell viability assay.

[23] = system: D-263MG; assay type: functional, cell-based, Homo sapiens; conditions: Homo sapiens, D-263MG
Description: SANGER: Inhibition of human D-263MG cell growth in a cell viability assay.

[24] = system: TE-11; assay type: functional, cell-based, Homo sapiens; conditions: Homo sapiens, TE-11;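 further: growth inhibition of human TE-11 cells, read out by a cell viability assay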
Description: SANGER: Inhibition of human TE-11 cell growth in a cell viability assay.

[25] = system: A 172; assay type: functional, cell-based, Homo sapiens; conditions: Homo sapiens, A 172;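 further: growth inhibition of A172 cells, measured with a cell viability readout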
Description: SANGER: Inhibition of human A172 cell growth in a cell viability assay.

[26] = system: NCI-N87; assay type: functional, cell-based, Homo sapiens; conditions: Homo sapiens, NCI-N87;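 further: growth inhibition of human NCI-N87 cells, read out with a cell viability assay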
Description: SANGER: Inhibition of human NCI-N87 cell growth in a cell viability assay.

[27] = system: DOK; assay type: functional, cell-based, Homo sapiens; conditions: Homo sapiens, DOK;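 further: cell viability assay read-out, values reflect inhibition of cell growth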
Description: SANGER: Inhibition of human DOK cell growth in a cell viability assay.

[28] = system: OMC-1; assay type: functional, cell-based, Homo sapiens; conditions: Homo sapiens, OMC-1;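 further: growth inhibition of the OMC-1 cell line, measured by a cell viability assay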
Description: SANGER: Inhibition of human OMC-1 cell growth in a cell viability assay.

[29] = system: NCI-H727; assay type: functional, cell-based, Homo sapiens; conditions: Homo sapiens, NCI-H727;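 further: growth inhibition of human NCI-H727 cells, read out with a cell viability assay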
Description: SANGER: Inhibition of human NCI-H727 cell growth in a cell viability assay.

[30] = system: AM-38; assay type: functional, cell-based, Homo sapiens; conditions: Homo sapiens, AM-38;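 further: growth inhibition of AM-38 cells of human origin, read out by a cell viability assay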
Description: SANGER: Inhibition of human AM-38 cell growth in a cell viability assay.

[31] = system: LS-1034; assay type: functional, cell-based, Homo sapiens; conditions: Homo sapiens, LS-1034
Description: SANGER: Inhibition of human LS-1034 cell growth in a cell viability assay.

[32] = system: COLO-679; assay type: functional, cell-based, Homo sapiens; conditions: Homo sapiens, COLO-679
Description: SANGER: Inhibition of human COLO-679 cell growth in a cell viability assay.

[33] = system: TGBC1TKB; assay type: functional, cell-based, Homo sapiens; conditions: Homo sapiens, TGBC1TKB;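 further: growth inhibition of TGBC1TKB cells, read out by a cell viability assay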
Description: SANGER: Inhibition of human TGBC1TKB cell growth in a cell viability assay.

[34] = system: EOL1; assay type: functional, cell-based; conditions: Homo sapiens;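 further: growth inhibition of EoL-1 cells, read out by a cell viability assay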
Description: SANGER: Inhibition of human EoL-1-cell cell growth in a cell viability assay.

[35] = system: DOHH-2; assay type: functional, cell-based; conditions: Homo sapiens;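 further: growth inhibition of human DOHH-2 cells, read out with a cell viability assay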
Description: SANGER: Inhibition of human DOHH-2 cell growth in a cell viability assay.

[36] = system: SW 962; assay type: functional, cell-based, Homo sapiens; conditions: Homo sapiens, SW 962;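 further: growth inhibition of human SW962 cells, read out by a cell viability assay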
Description: SANGER: Inhibition of human SW962 cell growth in a cell viability assay.

[37] = system: GAMG; assay type: functional, cell-based, Homo sapiens; conditions: Homo sapiens, GAMG;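 further: cell growth inhibition measured by a viability assay in the GAMG human cell line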
Description: SANGER: Inhibition of human GAMG cell growth in a cell viability assay.

[38] = system: SW1710; assay type: functional, cell-based, Homo sapiens; conditions: Homo sapiens, SW1710;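 further: growth inhibition of SW1710 cells, determined with a cell viability assay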
Description: SANGER: Inhibition of human SW1710 cell growth in a cell viability assay.

[39] = system: COLO-824; assay type: functional, cell-based, Homo sapiens; conditions: Homo sapiens, COLO-824
Description: SANGER: Inhibition of human COLO-824 cell growth in a cell viability assay.

[40] = system: MHH-NB-11; assay type: functional, cell-based, Homo sapiens; conditions: Homo sapiens, MHH-NB-11;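 further: growth inhibition of human MHH-NB-11 cells, read out by a cell viability assay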
Description: SANGER: Inhibition of human MHH-NB-11 cell growth in a cell viability assay.

[41] = system: HOP-92; assay type: functional, cell-based, Homo sapiens; conditions: Homo sapiens, HOP-92;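 further: cell viability readout, with IC50 reflecting inhibition of HOP-92 cell growth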
Description: SANGER: Inhibition of human HOP-92 cell growth in a cell viability assay.

[42] = system: SK-MES-1; assay type: functional, cell-based, Homo sapiens; conditions: Homo sapiens, SK-MES-1;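 further: growth inhibition of human SK-MES-1 cells, read out with a cell viability assay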
Description: SANGER: Inhibition of human SK-MES-1 cell growth in a cell viability assay.

[43] = system: SW 954; assay type: functional, cell-based, Homo sapiens; conditions: Homo sapiens, SW 954;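 further: growth inhibition of SW954 human cancer cells, read out as cell viability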
Description: SANGER: Inhibition of human SW954 cell growth in a cell viability assay.

[44] = system: UMC-11; assay type: functional, cell-based, Homo sapiens; conditions: Homo sapiens, UMC-11;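 further: growth inhibition of UMC-11 cells, read out with a cell viability assay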
Description: SANGER: Inhibition of human UMC-11 cell growth in a cell viability assay.

[45] = system: COLO-320-HSR; assay type: functional, cell-based; conditions: Homo sapiens;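 further: growth inhibition of COLO-320-HSR cells, determined with a cell viability assay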
Description: SANGER: Inhibition of human COLO-320-HSR cell growth in a cell viability assay.

[46] = system: HT; assay type: functional, cell-based; conditions: Homo sapiens
Description: SANGER: Inhibition of human HT cell growth in a cell viability assay.

[47] = system: SBC-5; assay type: functional, cell-based, Homo sapiens; conditions: Homo sapiens, SBC-5;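 further: cell viability assay read-out, IC50 is the concentration that inhibits growth of the cells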
Description: SANGER: Inhibition of human SBC-5 cell growth in a cell viability assay.

[48] = system: GR-ST; assay type: functional, cell-based; conditions: Homo sapiens
Description: SANGER: Inhibition of human GR-ST cell growth in a cell viability assay.

[49] = system: NCI-H2030; assay type: functional, cell-based, Homo sapiens; conditions: Homo sapiens, NCI-H2030;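 further: growth inhibition of human NCI-H2030 cells, read out by a cell viability assay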
Description: SANGER: Inhibition of human NCI-H2030 cell growth in a cell viability assay.

[50] = system: KM12; assay type: functional, cell-based, Homo sapiens; conditions: Homo sapiens, KM12;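 further: KM12 cell growth inhibition, read out with a cell viability assay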
Description: SANGER: Inhibition of human KM12 cell growth in a cell viability assay.

[51] = system: SW837; assay type: functional, cell-based, Homo sapiens; conditions: Homo sapiens, SW837;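 further: growth inhibition of SW837 cells, determined with a cell viability assay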
Description: SANGER: Inhibition of human SW837 cell growth in a cell viability assay.

[52] = system: HCC1569; assay type: functional, cell-based, Homo sapiens; conditions: Homo sapiens, HCC1569;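 further: growth inhibition of human HCC1569 cells, read out with a cell viability assay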
Description: SANGER: Inhibition of human HCC1569 cell growth in a cell viability assay.

COc1cc([C@@H]2c3cc4c(cc3[C@@H](O[C@@H]3O[C@@H]5CO[C@@H](C)O[C@H]5[C@H](O)[C@H]3O)[C@H]3COC(=O)[C@H]23)OCO4)cc(OC)c1O [ETOPOSIDE]
IC50 [1]: 1.26 µM | IC50 [2]: > 16 µM | IC50 [3]: 1.58 µM | IC50 [4]: 3.49 µM | IC50 [5]: 0.672 µM | IC50 [6]: > 16 µM | IC50 [7]: 6.53 µM | IC50 [8]: 2.66 µM | IC50 [9]: > 16 µM | IC50 [10]: > 16 µM | IC50 [11]: > 16 µM | IC50 [12]: 0.196 µM | IC50 [13]: 0.0215 µM | IC50 [14]: 11.5 µM | IC50 [15]: > 16 µM | IC50 [16]: 1.88 µM | IC50 [17]: > 16 µM | IC50 [18]: 0.425 µM | IC50 [19]: 0.487 µM | IC50 [20]: > 16 µM | IC50 [21]: > 16 µM | IC50 [22]: > 16 µM | IC50 [23]: > 16 µM | IC50 [24]: 7.46 µM | IC50 [25]: 8.65 µM | IC50 [26]: 15.8 µM | IC50 [27]: > 16 µM | IC50 [28]: > 16 µM | IC50 [29]: > 16 µM | IC50 [30]: 3.67 µM | IC50 [31]: > 16 µM | IC50 [32]: 0.163 µM | IC50 [33]: > 16 µM | IC50 [34]: 0.302 µM | IC50 [35]: 0.347 µM | IC50 [36]: > 16 µM | IC50 [37]: 2.61 µM | IC50 [38]: 0.518 µM | IC50 [39]: > 16 µM | IC50 [40]: 0.524 µM | IC50 [41]: 5.02 µM | IC50 [42]: 0.808 µM | IC50 [43]: 1.96 µM | IC50 [44]: > 16 µM | IC50 [45]: 9.73 µM | IC50 [46]: 15.3 µM | IC50 [47]: 0.303 µM | IC50 [48]: 6.69 µM | IC50 [49]: 0.23 µM | IC50 [50]: 1.88 µM | IC50 [51]: > 16 µM | IC50 [52]: 3.58 µM
